Test results published in paper PMC5640672, “Molecular mechanism of synergy between the antimicrobial peptides PGLa and magainin 2” (Scientific Reports, 2017).
No end group written: not given here.

Experiment: Fluorescence ANTS/DPX vesicle leakage assay in POPC/POPG (3:1)
Details: POPC/POPG (3:1) vesicles, result in words
Protocol: The synergy was also investigated by a fluorescence ANTS/DPX leakage assay[24],[27],[30]. As described in the Methods section, leakage from POPC/POPG (3:1) vesicles was measured for 10 minutes after the addition of vesicles to a peptide solution. Leakage is expressed as percentage of the full leakage, which was obtained after addition of detergent. A synergy factor was defined to describe the enhancement of leakage of the mixture compared to the sum of the extent of leakage for each component. […] In general a synergy factor above 2 indicated synergy. […] In the leakage assay, this pore formation can be studied under more controlled conditions. Here we use two lipid compositions for the vesicles, which are mimicking bacterial membranes.
(§1) Leakage of small unilamellar vesicles induced by the peptides was studied using a standard fluorescence assay.
(§2) The appropriate lipids for each experiment were dissolved in CHCl3, together with 0.02 mol-% Rhodamine-PE (Rh-PE). […] This stock suspension was subjected to 10 freeze-thaw cycles and then frozen. Appropriate aliquots of the stock lipid suspension were unfrozen each day and extruded (41 times) through polycarbonate membranes with 100 nm pore size, and stored at room temperature overnight. The fluorophore and quencher outside the vesicles were removed by size exclusion chromatography using spin-columns (Pierce centrifuge column, 2 ml, Life Technologies GmbH, Darmstadt, Germany) filled with Sephacryl 100-HR (2 min, 1500 × g). For elution, a 10 mM HEPES buffer (pH 7.5) was used, containing 155 mM NaCl to balance the osmolarity. After extrusion and removal of the external dye and quencher, the lipid concentration usually decreases. Therefore, before each set of measurements a rhodamine spectrum was recorded to determine the actual concentration of lipids, which was referenced to a spectrum taken of vesicles made by sonification without any subsequent treatment.
(§3) Fluorescence experiments were performed on a FluoroMax2 spectrofluorimeter (HORIBA Jobin Yvon, Unterhaching, Germany) equipped with a thermostated sample holder and magnetic stirrer, using an excitation wavelength of 355 nm, an emission wavelength of 508 nm, and slit widths of 5 nm. The peptide solutions were placed in elution buffer in a 1 cm standard cuvette at 30 °C. 100 s after the start of the measurement lipid vesicles were added, and the intensity of the fluorescence at 508 nm was recorded. The leakage was measured during 600 s after addition of vesicles, and the measurement was terminated after addition of Triton-X-100 (0.25% v/v), which dissolved the vesicles, and yielded 100% leakage. To determine the background signal of the vesicles themselves, several blanks were recorded per measurement set. From the leakage values of the peptides alone and of the mixture of two peptides a synergy factor SF was calculated:3 SF=L(A+B)/[L(A)+L(B)] […] Measurements were repeated three times and average values and standard deviations calculated for the leakage and the synergy factors. An average SF ≥ 2 was taken to indicate synergy.

Substance	Leakage synergy in combination with MAG2-E19K	Leakage synergy in combination with MAG2-E19K-amide
GMASKAGAIAGKIAEVALKAL-NH2 [PGLa-K15E, PGLa charge mutant K15E]	did not show synergy	did not show synergy
GMASKAGAIAGKIAKVALEAL-NH2 [PGLa-K19E, PGLa charge mutant K19E]	did not show synergy	did not show synergy

Same assay, conditions: Table S3 series (charge mutants); ANTS/DPX, POPC/POPG (3:1) 100 nm vesicles, P/L about 1:160 per peptide, mixtures 1:1, 10 mM HEPES pH 7.5, 155 mM NaCl, 30 °C, 600 s, % of Triton-X-100 leakage, fluorescence, mean of n = 3

Substance	Leakage, mean value [%]
GIGKFLHSAKKFGKAFVGEIMNS-NH2 [MAG2-amide, MAG2 with amidated C-terminus]	3.7
GIGKFLHSAKKFGKAFVGEIMNS-OH [MAG2-WT, magainin 2, wild type antimicrobial peptide from Xenopus laevis skin, reference compound]	3.1
GIGKFLHSAKKFGKAFVGQIMNS-OH [MAG2-E19Q, MAG2 charge mutant E19Q]	5.9
GMASEAGAIAGKIAKVALKAL-NH2 [PGLa-K5E, PGLa charge mutant K5E]	3.5
GMASKAGAIAGEIAKVALKAL-NH2 [PGLa-K12E, PGLa charge mutant K12E]	3.1
GMASKAGAIAGKIAEVALKAL-NH2 [PGLa-K15E, PGLa charge mutant K15E]	2.9
GMASKAGAIAGKIAKVALEAL-NH2 [PGLa-K19E, PGLa charge mutant K19E]	3.0
GMASKAGAIAGKIAKVALKAL-NH2 [PGLa-WT, PGLa wild type antimicrobial peptide from Xenopus laevis skin, 15N-labeled at Ala10, reference compound]	2.3

Same assay, conditions: Table S7 series (PGLa-to-MSI mutants); ANTS/DPX, POPC/POPG (3:1) 100 nm vesicles, P/L about 1:160 per peptide, mixtures 1:1, 10 mM HEPES pH 7.5, 155 mM NaCl, 30 °C, 600 s, % of Triton-X-100 leakage, fluorescence, mean of n = 3

Substance	Leakage, mean value [%]
GIGKFLHSAKKFGKAFVGEIMNS-OH [MAG2-WT, magainin 2, wild type antimicrobial peptide from Xenopus laevis skin, reference compound]	3.2
GMASKAAAIAGKIAKVALKAL-NH2 (also: 15N-labeled Ala10) [PtM-G7A, PGLa single mutant G7A]	2.1
GMASKAGAIAGKIAKVALKAL-NH2 [PGLa-WT, PGLa wild type antimicrobial peptide from Xenopus laevis skin, 15N-labeled at Ala10, reference compound]	2.7
GMASKIAKIAGKIAKVALKAL-NH2 [PtM-a3, PGLa to MSI-103 mutant, three amino acids converted]	3.3
KIAGKIAKIAGKIAKIAGKIA-NH2 [MSI-103, designer-made AMP ([KIAGKIA]3-NH2) derived from PGLa, reference compound]	2.0

Same assay, conditions: Table S11 series (MSI-to-PGLa mutants); ANTS/DPX, POPC/POPG (3:1) 100 nm vesicles, P/L about 1:160 per peptide, mixtures 1:1, 10 mM HEPES pH 7.5, 155 mM NaCl, 30 °C, 600 s, % of Triton-X-100 leakage, fluorescence, mean of n = 3

Substance	Leakage, mean value [%]
GIGKFLHSAKKFGKAFVGEIMNS-OH [MAG2-WT, magainin 2, wild type antimicrobial peptide from Xenopus laevis skin, reference compound]	3.2
GMASKAGAIAGKIAKVALKAL-NH2 [PGLa-WT, PGLa wild type antimicrobial peptide from Xenopus laevis skin, 15N-labeled at Ala10, reference compound]	2.3

Same assay, conditions: Table S15 series (Gly mutants); ANTS/DPX, POPC/POPG (3:1) 100 nm vesicles, P/L about 1:160 per peptide, mixtures 1:1, 10 mM HEPES pH 7.5, 155 mM NaCl, 30 °C, 600 s, % of Triton-X-100 leakage, fluorescence, mean of n = 3

Substance	Leakage, mean value [%]
GIGKFLHSAKKFGKAFVGEIMNS-OH [MAG2-WT, magainin 2, wild type antimicrobial peptide from Xenopus laevis skin, reference compound]	3.2
GMASKAGAIAGKIAKVALKAL-NH2 [PGLa-WT, PGLa wild type antimicrobial peptide from Xenopus laevis skin, 15N-labeled at Ala10, reference compound]	2.2

Experiment: Fluorescence ANTS/DPX vesicle leakage assay in POPE/POPG/TOCL (72:23:5)
Details: Table S4 series (charge mutants), POPE/POPG/TOCL (72:23:5) 100 nm vesicles, P/L ≈ 1:30, mixtures 1:1, 10 mM HEPES pH 7.5, 155 mM NaCl, 30 °C, 600 s, % of Triton-X-100 leakage, mean of n = 3
From the text: It could be argued that POPC/POPG (3:1) is not the most appropriate model system to describe a bacterial membrane, which rarely contains PC lipids. We therefore also performed leakage in another lipid system, POPE/POPG/TOCL (72:23:5), which is a good model of E. coli membranes[45],[69],[70]. […] For all of the other mutants discussed below, leakage was also studied both in POPC/POPG as well as POPE/POPG/TOCL, but since the results (synergy or no synergy) were in all cases the same, the latter data will not be presented in the text. All leakage data in POPE/POPG/TOCL (72:23:5) for charge mutants are summarized in Supplementary Table S4.
as §1, §2
as §3, with “SF=L(A+B)/[L(A)+L(B)] Here, L(A) is the leakage found with peptide A alone, L(B) is the leakage found with peptide B alone, and L(A + B) is the leakage found with the mixture of peptides A and B. In all cases the P/L was the same for both peptides, alone and in the mixture, so that in the mixture the total P/L was twice that of the individual peptide measurements.” for “SF=L(A+B)/[L(A)+L(B)]”

Substance	Leakage, mean value [%]
GIGKFLHSAKKFGKAFVGEIMNS-NH2 [MAG2-amide, MAG2 with amidated C-terminus]	0.8
GIGKFLHSAKKFGKAFVGEIMNS-OH [MAG2-WT, magainin 2, wild type antimicrobial peptide from Xenopus laevis skin, reference compound]	1.1
GIGKFLHSAKKFGKAFVGQIMNS-OH [MAG2-E19Q, MAG2 charge mutant E19Q]	1.1
GMASEAGAIAGKIAKVALKAL-NH2 [PGLa-K5E, PGLa charge mutant K5E]	2.2
GMASKAGAIAGEIAKVALKAL-NH2 [PGLa-K12E, PGLa charge mutant K12E]	2.3
GMASKAGAIAGKIAEVALKAL-NH2 [PGLa-K15E, PGLa charge mutant K15E]	2.5
GMASKAGAIAGKIAKVALEAL-NH2 [PGLa-K19E, PGLa charge mutant K19E]	1.7
GMASKAGAIAGKIAKVALKAL-NH2 [PGLa-WT, PGLa wild type antimicrobial peptide from Xenopus laevis skin, 15N-labeled at Ala10, reference compound]	2.2

Same assay, conditions: Table S8 series (PGLa-to-MSI mutants), POPE/POPG/TOCL (72:23:5) 100 nm vesicles, P/L ≈ 1:30, mixtures 1:1, 10 mM HEPES pH 7.5, 155 mM NaCl, 30 °C, 600 s, % of Triton-X-100 leakage, mean of n = 3

Substance	Leakage, mean value [%]
GIGKFLHSAKKFGKAFVGEIMNS-OH [MAG2-WT, magainin 2, wild type antimicrobial peptide from Xenopus laevis skin, reference compound]	1.2
GMASKAAAIAGKIAKVALKAL-NH2 (also: 15N-labeled Ala10) [PtM-G7A, PGLa single mutant G7A]	3.7
GMASKAGAIAGKIAKVALKAL-NH2 [PGLa-WT, PGLa wild type antimicrobial peptide from Xenopus laevis skin, 15N-labeled at Ala10, reference compound]	2.2
GMASKIAKIAGKIAKVALKAL-NH2 [PtM-a3, PGLa to MSI-103 mutant, three amino acids converted]	9.1
KIAGKIAKIAGKIAKIAGKIA-NH2 [MSI-103, designer-made AMP ([KIAGKIA]3-NH2) derived from PGLa, reference compound]	5.6

Same assay, conditions: Table S12 series (MSI-to-PGLa mutants), POPE/POPG/TOCL (72:23:5) 100 nm vesicles, P/L ≈ 1:30, mixtures 1:1, 10 mM HEPES pH 7.5, 155 mM NaCl, 30 °C, 600 s, % of Triton-X-100 leakage, mean of n = 3

Substance	Leakage, mean value [%]
GIGKFLHSAKKFGKAFVGEIMNS-OH [MAG2-WT, magainin 2, wild type antimicrobial peptide from Xenopus laevis skin, reference compound]	1.0
GMASKAGAIAGKIAKVALKAL-NH2 [PGLa-WT, PGLa wild type antimicrobial peptide from Xenopus laevis skin, 15N-labeled at Ala10, reference compound]	2.1

Same assay, conditions: Table S16 series (Gly mutants), POPE/POPG/TOCL (72:23:5) 100 nm vesicles, P/L ≈ 1:30, mixtures 1:1, 10 mM HEPES pH 7.5, 155 mM NaCl, 30 °C, 600 s, % of Triton-X-100 leakage, mean of n = 3

Substance	Leakage, mean value [%]
GIGKFLHSAKKFGKAFVGEIMNS-OH [MAG2-WT, magainin 2, wild type antimicrobial peptide from Xenopus laevis skin, reference compound]	1.1
GMASKAGAIAGKIAKVALKAL-NH2 [PGLa-WT, PGLa wild type antimicrobial peptide from Xenopus laevis skin, 15N-labeled at Ala10, reference compound]	2.3
